Common to all, as to conditions: Compound concentration 10 µM
The target in assay [1] is Sodium-dependent dopamine transporter (Homo sapiens) (UniProt Q01959).
The target in assay [2] is 5-hydroxytryptamine receptor 2B (Homo sapiens) (UniProt P41595).
In assay [3] the target is Histamine H4 receptor (Homo sapiens) (UniProt Q9H3N8).
Assay [4] addresses Beta-2 adrenergic receptor (Homo sapiens) (UniProt P07550).
Assay [5] concerns the target D(3) dopamine receptor (Homo sapiens) (UniProt P35462).
For assay [6], the target named is T1, 5-hydroxytryptamine receptor 3A (Homo sapiens) (UniProt P46098).
T1 sequence (whole entry): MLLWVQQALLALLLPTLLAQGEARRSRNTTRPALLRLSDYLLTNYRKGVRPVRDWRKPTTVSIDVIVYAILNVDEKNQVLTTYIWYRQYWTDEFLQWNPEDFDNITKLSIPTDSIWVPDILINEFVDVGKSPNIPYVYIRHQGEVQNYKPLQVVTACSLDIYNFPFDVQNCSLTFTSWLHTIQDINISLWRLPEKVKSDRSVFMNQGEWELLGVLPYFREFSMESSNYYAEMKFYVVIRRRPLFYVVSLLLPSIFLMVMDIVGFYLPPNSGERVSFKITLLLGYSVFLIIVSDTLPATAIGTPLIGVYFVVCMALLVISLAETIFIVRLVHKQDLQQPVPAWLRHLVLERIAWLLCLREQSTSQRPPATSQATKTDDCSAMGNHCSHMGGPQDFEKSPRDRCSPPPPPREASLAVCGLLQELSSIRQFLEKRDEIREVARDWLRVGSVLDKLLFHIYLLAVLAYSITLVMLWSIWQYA

Assay [7] concerns the target T2, Alpha-1D adrenergic receptor (Homo sapiens) (UniProt P25100).
T2 sequence (whole entry): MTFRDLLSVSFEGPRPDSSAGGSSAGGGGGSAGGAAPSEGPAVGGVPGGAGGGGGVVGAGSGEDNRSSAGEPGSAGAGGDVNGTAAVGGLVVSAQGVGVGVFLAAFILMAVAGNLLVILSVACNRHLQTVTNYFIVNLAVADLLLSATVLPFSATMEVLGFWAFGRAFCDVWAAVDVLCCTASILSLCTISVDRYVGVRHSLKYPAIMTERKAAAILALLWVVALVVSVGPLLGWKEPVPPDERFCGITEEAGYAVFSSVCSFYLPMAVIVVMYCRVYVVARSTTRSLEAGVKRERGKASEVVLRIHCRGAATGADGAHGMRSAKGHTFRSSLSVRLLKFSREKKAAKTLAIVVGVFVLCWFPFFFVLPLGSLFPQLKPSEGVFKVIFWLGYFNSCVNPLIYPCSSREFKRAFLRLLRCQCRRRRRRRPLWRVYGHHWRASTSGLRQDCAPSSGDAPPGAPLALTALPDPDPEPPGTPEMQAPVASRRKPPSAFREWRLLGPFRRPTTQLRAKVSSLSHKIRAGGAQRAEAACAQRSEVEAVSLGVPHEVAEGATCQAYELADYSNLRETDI

In assay [8] the target is Sigma intracellular receptor 2 (Homo sapiens) (UniProt Q5BJF2).
For assay [9], the target named is 5-hydroxytryptamine receptor 2A (Homo sapiens) (UniProt P28223).
Assay [10] concerns the target D(1B) dopamine receptor (Homo sapiens) (UniProt P21918).
Assay [11] deals with 5-hydroxytryptamine receptor 1D (Homo sapiens) (UniProt P28221).
In assay [12] the target is 5-hydroxytryptamine receptor 7 (Homo sapiens) (UniProt P34969).
Assay [13] has as its target Delta-type opioid receptor (Homo sapiens) (UniProt P41143).
Assay [14] has as its target Mu-type opioid receptor (Homo sapiens) (UniProt P35372).
Assay [15] deals with 5-hydroxytryptamine receptor 1B (Homo sapiens) (UniProt P28222).
The target in assay [16] is Histamine H1 receptor (Homo sapiens) (UniProt P35367).
The target in assay [17] is D(2) dopamine receptor (Homo sapiens) (UniProt P14416).
Assay [18] deals with T3, Alpha-1A adrenergic receptor (Homo sapiens) (UniProt P35348).
T3 sequence (whole entry): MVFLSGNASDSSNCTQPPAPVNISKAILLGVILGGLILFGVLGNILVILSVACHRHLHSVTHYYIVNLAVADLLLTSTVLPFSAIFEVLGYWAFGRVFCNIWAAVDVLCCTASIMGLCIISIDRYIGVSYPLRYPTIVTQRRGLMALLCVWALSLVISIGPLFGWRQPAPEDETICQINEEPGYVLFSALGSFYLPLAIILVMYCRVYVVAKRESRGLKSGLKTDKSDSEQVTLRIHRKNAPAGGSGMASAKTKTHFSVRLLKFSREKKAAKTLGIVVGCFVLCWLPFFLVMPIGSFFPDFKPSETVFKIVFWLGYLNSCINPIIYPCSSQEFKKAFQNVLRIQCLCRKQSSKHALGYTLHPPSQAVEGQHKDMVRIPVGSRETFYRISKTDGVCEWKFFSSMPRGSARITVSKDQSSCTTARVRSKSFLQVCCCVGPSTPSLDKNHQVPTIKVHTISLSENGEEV

The structures appear in SMILES notation.

Sequence of 5-hydroxytryptamine receptor 7 (Homo sapiens) (P34969 whole entry): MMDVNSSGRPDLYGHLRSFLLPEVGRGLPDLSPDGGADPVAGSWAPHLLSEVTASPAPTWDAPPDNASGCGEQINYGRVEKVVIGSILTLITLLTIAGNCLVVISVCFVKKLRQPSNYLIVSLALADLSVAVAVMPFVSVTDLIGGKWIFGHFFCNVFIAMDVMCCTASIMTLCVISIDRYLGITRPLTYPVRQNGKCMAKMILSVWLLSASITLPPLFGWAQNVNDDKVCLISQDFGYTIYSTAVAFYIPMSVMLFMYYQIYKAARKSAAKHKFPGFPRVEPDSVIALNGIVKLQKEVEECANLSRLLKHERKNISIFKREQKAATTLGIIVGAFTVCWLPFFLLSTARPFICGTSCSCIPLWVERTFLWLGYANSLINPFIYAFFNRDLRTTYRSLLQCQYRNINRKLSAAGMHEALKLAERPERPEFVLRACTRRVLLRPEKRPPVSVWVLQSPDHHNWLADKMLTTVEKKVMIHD
Sequence of Histamine H4 receptor (Homo sapiens) (Q9H3N8 whole entry): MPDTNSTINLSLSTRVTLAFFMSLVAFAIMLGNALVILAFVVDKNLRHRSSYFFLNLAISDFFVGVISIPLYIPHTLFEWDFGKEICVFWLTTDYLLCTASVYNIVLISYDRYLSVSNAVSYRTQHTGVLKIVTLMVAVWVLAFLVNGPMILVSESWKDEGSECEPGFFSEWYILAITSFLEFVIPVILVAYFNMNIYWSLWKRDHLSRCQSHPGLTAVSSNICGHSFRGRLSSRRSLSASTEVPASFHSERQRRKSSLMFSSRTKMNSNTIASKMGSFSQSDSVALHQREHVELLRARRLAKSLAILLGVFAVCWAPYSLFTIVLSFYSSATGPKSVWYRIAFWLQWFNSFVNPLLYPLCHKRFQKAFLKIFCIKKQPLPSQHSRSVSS
Sequence of 5-hydroxytryptamine receptor 2B (Homo sapiens) (P41595 whole entry): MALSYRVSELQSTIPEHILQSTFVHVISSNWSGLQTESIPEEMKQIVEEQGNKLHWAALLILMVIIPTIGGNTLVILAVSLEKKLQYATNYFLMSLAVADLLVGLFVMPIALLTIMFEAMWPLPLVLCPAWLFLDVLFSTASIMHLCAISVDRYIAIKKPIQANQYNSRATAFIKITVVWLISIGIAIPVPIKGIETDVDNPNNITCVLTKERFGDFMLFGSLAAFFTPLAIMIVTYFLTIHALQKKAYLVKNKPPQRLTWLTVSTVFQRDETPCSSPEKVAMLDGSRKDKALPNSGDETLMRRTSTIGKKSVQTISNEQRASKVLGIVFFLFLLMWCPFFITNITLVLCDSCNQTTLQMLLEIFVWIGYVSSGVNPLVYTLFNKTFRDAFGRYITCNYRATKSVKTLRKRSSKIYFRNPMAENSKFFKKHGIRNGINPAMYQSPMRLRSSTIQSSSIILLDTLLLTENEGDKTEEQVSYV
Sequence of Beta-2 adrenergic receptor (Homo sapiens) (P07550 whole entry, looked up): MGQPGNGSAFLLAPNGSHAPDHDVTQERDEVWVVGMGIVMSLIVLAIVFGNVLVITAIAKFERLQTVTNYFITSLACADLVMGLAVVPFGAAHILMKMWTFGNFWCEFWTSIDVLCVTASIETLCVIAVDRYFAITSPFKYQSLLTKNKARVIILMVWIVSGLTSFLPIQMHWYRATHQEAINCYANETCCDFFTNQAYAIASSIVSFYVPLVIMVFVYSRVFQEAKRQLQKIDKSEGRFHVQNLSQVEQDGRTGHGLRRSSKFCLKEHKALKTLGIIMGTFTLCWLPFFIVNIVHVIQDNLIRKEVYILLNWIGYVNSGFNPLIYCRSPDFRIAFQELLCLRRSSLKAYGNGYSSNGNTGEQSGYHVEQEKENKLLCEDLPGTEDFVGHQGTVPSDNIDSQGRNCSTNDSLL
Sequence of Mu-type opioid receptor (Homo sapiens) (P35372 whole entry): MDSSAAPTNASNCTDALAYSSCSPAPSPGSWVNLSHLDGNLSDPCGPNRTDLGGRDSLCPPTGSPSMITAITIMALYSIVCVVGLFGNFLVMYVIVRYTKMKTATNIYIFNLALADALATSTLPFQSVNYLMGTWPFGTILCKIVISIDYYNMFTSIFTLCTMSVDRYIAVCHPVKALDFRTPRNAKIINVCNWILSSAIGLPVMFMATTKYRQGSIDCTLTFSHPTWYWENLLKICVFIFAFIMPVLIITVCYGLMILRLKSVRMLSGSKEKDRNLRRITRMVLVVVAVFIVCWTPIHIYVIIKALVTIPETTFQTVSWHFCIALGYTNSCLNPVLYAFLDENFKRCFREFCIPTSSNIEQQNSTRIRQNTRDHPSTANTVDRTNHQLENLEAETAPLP
Sequence of 5-hydroxytryptamine receptor 1D (Homo sapiens) (P28221 whole entry): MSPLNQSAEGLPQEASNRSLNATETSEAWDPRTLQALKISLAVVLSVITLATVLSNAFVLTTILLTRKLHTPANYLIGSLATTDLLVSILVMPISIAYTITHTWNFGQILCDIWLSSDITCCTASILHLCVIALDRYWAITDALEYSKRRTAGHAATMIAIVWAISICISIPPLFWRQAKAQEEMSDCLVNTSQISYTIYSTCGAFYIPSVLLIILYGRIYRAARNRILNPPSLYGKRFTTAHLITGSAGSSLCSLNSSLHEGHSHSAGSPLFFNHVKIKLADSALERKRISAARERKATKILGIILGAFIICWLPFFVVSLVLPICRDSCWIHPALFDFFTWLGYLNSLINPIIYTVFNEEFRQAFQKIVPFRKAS
Sequence of D(3) dopamine receptor (Homo sapiens) (P35462 whole entry): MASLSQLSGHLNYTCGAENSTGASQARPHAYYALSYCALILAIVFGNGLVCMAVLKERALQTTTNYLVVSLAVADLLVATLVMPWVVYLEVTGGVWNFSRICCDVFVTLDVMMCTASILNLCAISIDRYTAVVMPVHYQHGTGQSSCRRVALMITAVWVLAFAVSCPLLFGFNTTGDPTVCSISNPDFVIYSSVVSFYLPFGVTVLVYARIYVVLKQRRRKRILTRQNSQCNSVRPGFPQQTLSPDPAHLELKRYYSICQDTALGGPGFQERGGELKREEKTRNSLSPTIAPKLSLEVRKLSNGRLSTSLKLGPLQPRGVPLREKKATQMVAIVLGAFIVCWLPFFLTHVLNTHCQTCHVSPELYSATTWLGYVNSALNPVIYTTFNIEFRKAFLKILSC
Sequence of D(1B) dopamine receptor (Homo sapiens) (P21918 whole entry): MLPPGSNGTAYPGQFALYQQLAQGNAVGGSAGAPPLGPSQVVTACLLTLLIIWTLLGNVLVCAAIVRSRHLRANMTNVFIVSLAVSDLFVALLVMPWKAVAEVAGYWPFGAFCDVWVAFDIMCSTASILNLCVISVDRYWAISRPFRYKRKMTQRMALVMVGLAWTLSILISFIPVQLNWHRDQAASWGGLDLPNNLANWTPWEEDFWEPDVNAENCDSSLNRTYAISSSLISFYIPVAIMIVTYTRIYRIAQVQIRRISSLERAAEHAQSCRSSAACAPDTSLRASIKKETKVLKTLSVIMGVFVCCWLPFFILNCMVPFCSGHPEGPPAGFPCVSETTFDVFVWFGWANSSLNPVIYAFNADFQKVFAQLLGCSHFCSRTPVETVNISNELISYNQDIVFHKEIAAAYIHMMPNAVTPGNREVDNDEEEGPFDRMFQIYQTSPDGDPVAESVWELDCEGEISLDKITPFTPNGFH
Sequence of D(2) dopamine receptor (Homo sapiens) (P14416 whole entry): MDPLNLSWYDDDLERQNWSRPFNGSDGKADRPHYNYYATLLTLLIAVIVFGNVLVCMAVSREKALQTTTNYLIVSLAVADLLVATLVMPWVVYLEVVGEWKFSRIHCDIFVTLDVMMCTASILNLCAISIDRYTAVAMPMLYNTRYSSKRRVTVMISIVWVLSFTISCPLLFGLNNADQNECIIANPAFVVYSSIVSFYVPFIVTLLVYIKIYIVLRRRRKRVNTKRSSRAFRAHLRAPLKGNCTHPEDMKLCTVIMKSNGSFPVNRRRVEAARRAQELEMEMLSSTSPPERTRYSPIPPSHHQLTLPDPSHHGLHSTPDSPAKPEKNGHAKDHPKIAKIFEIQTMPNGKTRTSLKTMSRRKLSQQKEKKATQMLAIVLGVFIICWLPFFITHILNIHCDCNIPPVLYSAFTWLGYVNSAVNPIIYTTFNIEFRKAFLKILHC
Sequence of Sodium-dependent dopamine transporter (Homo sapiens) (Q01959 whole entry): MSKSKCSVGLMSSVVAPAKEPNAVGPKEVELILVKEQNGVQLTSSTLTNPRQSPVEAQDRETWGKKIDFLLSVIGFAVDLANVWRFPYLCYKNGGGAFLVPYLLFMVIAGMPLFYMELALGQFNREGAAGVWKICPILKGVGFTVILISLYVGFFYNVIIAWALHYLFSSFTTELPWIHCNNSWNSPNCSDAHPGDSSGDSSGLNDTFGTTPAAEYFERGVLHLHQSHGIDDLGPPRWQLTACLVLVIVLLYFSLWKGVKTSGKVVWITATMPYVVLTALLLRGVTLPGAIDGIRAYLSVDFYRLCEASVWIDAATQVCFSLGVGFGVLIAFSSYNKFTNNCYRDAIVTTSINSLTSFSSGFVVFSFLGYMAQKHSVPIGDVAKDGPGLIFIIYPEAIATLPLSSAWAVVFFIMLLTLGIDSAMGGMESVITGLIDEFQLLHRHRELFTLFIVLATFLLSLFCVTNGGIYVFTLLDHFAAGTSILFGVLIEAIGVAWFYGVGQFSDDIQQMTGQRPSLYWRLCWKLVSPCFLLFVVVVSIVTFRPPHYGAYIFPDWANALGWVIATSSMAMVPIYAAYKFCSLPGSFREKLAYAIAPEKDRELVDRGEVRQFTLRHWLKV
Sequence of 5-hydroxytryptamine receptor 1B (Homo sapiens) (P28222 whole entry): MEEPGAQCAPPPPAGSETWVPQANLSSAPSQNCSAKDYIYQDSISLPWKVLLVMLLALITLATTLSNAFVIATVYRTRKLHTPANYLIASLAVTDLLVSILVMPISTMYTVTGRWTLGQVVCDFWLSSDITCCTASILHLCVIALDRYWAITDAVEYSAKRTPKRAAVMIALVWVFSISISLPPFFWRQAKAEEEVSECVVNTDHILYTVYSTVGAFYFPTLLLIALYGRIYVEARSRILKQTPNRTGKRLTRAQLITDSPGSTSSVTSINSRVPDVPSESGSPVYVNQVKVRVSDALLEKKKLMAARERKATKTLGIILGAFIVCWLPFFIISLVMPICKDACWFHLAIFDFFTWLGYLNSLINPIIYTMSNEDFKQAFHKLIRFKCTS

Usually inhibition stands for the drop in the measured response relative to a control, in per cent. Take `CCCn1c(=O)c2nc(C34CC5CC(CC3C5)C4)[nH]c2n(CCC)c1=O`: the inhibition in assay [1] is 50%; in assay [2], 43.5%; in [3] it was 6.77%; in assay [4] it was 4.88%; in [5] it was -4.54%; in assay [6], -9.26%. Moreover, the inhibition in [7] was -8.33%; in assay [8] it was 39.6%; in [9] it was -7.63%; in [10], 23.9%; in assay [11] it was 23.4%; in [12], 5.98%. For the same molecule, the inhibition in assay [13] was 11.3%; in assay [14], 9.1%; in [15], 19.3%; in assay [16], 8.71%.

Regarding `CN1C[C@H](C(=O)N[C@]2(C)O[C@@]3(O)[C@@H]4CCCN4C(=O)[C@H](Cc4ccccc4)N3C2=O)C[C@@H]2c3cccc4[nH]cc(c34)C[C@H]21`, the inhibition is 5.72% in assay [1]; 82.8% in [2]; 3.01% in assay [3]; 18.1% in assay [4]; 97.8% in [5]; 1.05% in assay [6]. Also, the inhibition in [7] was 102%; in [8], 93.6%; in assay [10] it was 78.7%; in assay [11], 98.8%; in assay [12], 91.3%; in assay [13], 14.2%. Also, the inhibition in [14] is 58.1%; in [17], 100%; in assay [15], 104%; in [18] it was 99.4%.

For the molecule `Cc1ccccc1N1CCN(S(=O)(=O)C[C@]23CC[C@H](C[C@@H]2NC(=O)[C@@H](N)CCS(C)(=O)=O)C3(C)C)CC1`, the inhibition is 30.4% in [1]; 31.7% in [2]; -3.44% in assay [3]; 13.7% in assay [4]; -6.48% in assay [6]; 4.26% in assay [7]. The inhibition in assay [8] was 85%; in [9] it was 1.52%; in [10] it was -6.4%; in assay [11], -2.54%; in assay [12] it was 25.6%; in assay [13], 7.82%. Further, the inhibition in assay [14] was 15.9%; in assay [15], 18.8%; in assay [18], 19.4%; in assay [16], 0.34%.

Consider `CC(C)NCC(O)COc1cccc2[nH]ccc12` (stereo not given), for which the inhibition is 21.3% in assay [1]; 39.4% in [2]; -8.33% in [3]; 100% in assay [4]; 65.4% in assay [5]; -0.98% in assay [6]. Further, the inhibition in [7] was 13.6%; in assay [8], 97.5%; in assay [10], 26.3%; in [11], 50.9%; in [12], 37.8%; in assay [13] it was -2.56%. Moreover, the inhibition in assay [14] was 16.8%; in [17], 30.5%; in assay [15] it was 22%; in assay [18] it was 32%.

Consider `CN1CCC(=C2c3ccccc3CC(=O)c3sccc32)CC1`, for which the inhibition in assay [1] was 20.7%; in [2], 98.4%; in assay [3] it was 26.2%; in assay [4] it was 25.3%; in assay [5], 80.2%; in assay [6], 84.5%. The inhibition in assay [7] was 16.3%; in [8], 91.3%; in assay [10] it was 55.2%; in [11], 123%; in [12], 90.4%; in [13], 14.2%. The inhibition was 15.9% in assay [14], 100% in [17], 63.1% in assay [15] and 9.71% in [18].

The values above are taken from ChEMBL document CHEMBL5442219.
